Test results taken from patent publication US6613738B1, “Cyclic lipopeptide from Cryptosporiopsis quercina possessing antifungal activity” (HMV Corporation, priority 1998, dated 2003).
Numbered stars: 1 amine (or outer) side, 2 acyl side, 3 side chain; on linkers, the order of the positions; unused ones are H or OH. Bridge positions count the residues as written; N and C are the ends. Square brackets hold non-standard residues; d marks the D form. Peptide text beside a SMILES is read from it. * marks the point of attachment. ξ: configuration not given here. ξOrn(4,5-diOH) = O=C(C(CC(O)C(O)N[*:3])N[*:1])[*:2]; ξhTyr(βξ-OH,γξ-OH) = NC(C(=O)O)C(O)C(O)c1ccc(O)cc1; X1 = O=C(C1C(O)C(CO)CN1[*:1])[*:2]; Palmitoyl = CCCCCCCCCCCCCCCC(=O)*; Hyp = O=C(O)[CH]1C[CH](O)CN1

How the values were obtained:
Candida albicans = assay: MIC, microbroth dilution assay (NCCLS); assay type: cell-based
Aspergillus fumigatus = assay: MIC, microbroth dilution assay (NCCLS); assay type: cell-based
Cryptococcus neoformans = assay: MIC, microbroth dilution assay (NCCLS); assay type: cell-based
Candida parasilopsis = assay: MIC, microbroth dilution assay (NCCLS); assay type: cell-based
Histoplasma capsulatum = assay type: cell-based
nail and skin infections = assay: Nail and skin infections with human volunteers; assay type: in vivo

| Compound | Minimum Inhibitory Concentration (Candida albicans) | Minimum Inhibitory Concentration (Aspergillus fumigatus) | Minimum Inhibitory Concentration (Cryptococcus neoformans) | Minimum Inhibitory Concentration (Candida parasilopsis) | Minimum Inhibitory Concentration (Histoplasma capsulatum) | results on nail and skin infections (nail and skin infections) | effect on fungus (in words) (Aspergillus fumigatus) | effect on fungus (in words) (Cryptococcus neoformans) |
| --- | --- | --- | --- | --- | --- | --- | --- | --- |
| Echinocandin B [reference compound] | 0.3 µg/mL | >20 µg/mL | >20 µg/mL |  |  |  |  |  |
| C[C@@H]1[C@H](O)[C@@H](C)/C=C/C=C/C=C/C=C/C=C/C=C/C=C/[C@H](O[C@@H]2O[C@H](C)[C@@H](O)[C@H](N)[C@@H]2O)C[C@@H]2O[C@](O)(C[C@@H](O)C[C@@H](O)[C@H](O)CC[C@@H](O)C[C@@H](O)CC(=O)O[C@H]1C)C[C@H](O)[C@H]2C(=O)O [Amphotericin B, reference compound] | 0.04 µg/mL | 0.03 µg/mL | 0.04 µg/mL | 0.01 µg/mL | 0.01 µg/mL |  |  |  |
| CCCCCCCCCCCCCCCC(=O)NC1CC(O)C(O)NC(=O)C2C(O)C(CO)CN2C(=O)C(CCC(N)=O)NC(=O)C(C(O)C(O)c2ccc(O)cc2)NC(=O)C2CC(O)CN2C(=O)C(C(C)O)NC1=O (stereo not drawn) [Cryptocandin] (Palmitoyl-[ξOrn(4,5-diOH)]T[Hyp][ξhTyr(βξ-OH,γξ-OH)]Q[X1]; lactam 1-C; configuration not given here) | 0.03 µg/mL | >20 µg/mL | >20 µg/mL | 2.5 µg/mL | 0.01 µg/mL | promising results | little effect | little effect |
